According to the NIST ThermoML archive (doi:10.1021/je500424b):

Details: Gas, Cylindrical cavity resonance method

C=CC [propene]
Details | speed of sound [m/s]
260 K, 164.45 kPa | 238.03
260 K, 185.32 kPa | 237.15
260 K, 206.56 kPa | 236.23
260 K, 227.97 kPa | 235.29
260 K, 248.96 kPa | 234.36
260 K, 275.35 kPa | 233.17
260 K, 293.11 kPa | 232.48
270 K, 144.04 kPa | 243.6
270 K, 173.01 kPa | 242.51
270 K, 206.19 kPa | 241.23
270 K, 236.28 kPa | 240.06
270 K, 262.89 kPa | 239
270 K, 263.03 kPa | 239
270 K, 302.89 kPa | 237.39
270 K, 333.53 kPa | 236.13
270 K, 361.31 kPa | 234.96
270 K, 389.41 kPa | 233.76
280 K, 149.29 kPa | 247.97
280 K, 188.35 kPa | 246.64
280 K, 226.29 kPa | 245.31
280 K, 267.79 kPa | 243.84
280 K, 308.73 kPa | 242.37
280 K, 354.13 kPa | 240.69
280 K, 397.57 kPa | 239.06
280 K, 438.3 kPa | 237.49
280 K, 438.33 kPa | 237.49
280 K, 478.89 kPa | 235.89
280 K, 519.72 kPa | 234.24
280 K, 556.25 kPa | 232.73
290 K, 141.01 kPa | 252.63
290 K, 199.13 kPa | 250.82
290 K, 257.68 kPa | 248.96
290 K, 313.39 kPa | 247.15
290 K, 372.8 kPa | 245.18
290 K, 434.96 kPa | 243.06
290 K, 495.22 kPa | 240.95
290 K, 553.22 kPa | 238.87
290 K, 616.94 kPa | 236.51
290 K, 672.07 kPa | 234.4
290 K, 677.98 kPa | 234.17
290 K, 695.54 kPa | 233.48
300 K, 134.71 kPa | 257.09
300 K, 182.3 kPa | 255.75
300 K, 260.81 kPa | 253.49
300 K, 344.4 kPa | 251.01
300 K, 425.25 kPa | 248.56
300 K, 505.72 kPa | 246.04
300 K, 582.66 kPa | 243.56
300 K, 661.1 kPa | 240.94
300 K, 740.35 kPa | 238.22
300 K, 826.4 kPa | 235.15
300 K, 903.31 kPa | 232.29
300 K, 960.98 kPa | 230.07
310 K, 142.07 kPa | 261.05
310 K, 235.24 kPa | 258.61
310 K, 325.91 kPa | 256.18
310 K, 424.89 kPa | 253.46
310 K, 520.89 kPa | 250.75
310 K, 623.06 kPa | 247.76
310 K, 713.38 kPa | 245.04
310 K, 810.73 kPa | 242.01
310 K, 906.76 kPa | 238.9
310 K, 952.69 kPa | 237.37
320 K, 142.67 kPa | 265.1
320 K, 210.07 kPa | 263.49
320 K, 279.66 kPa | 261.81
320 K, 349.85 kPa | 260.08
320 K, 425.07 kPa | 258.19
320 K, 509.07 kPa | 256.04
320 K, 596.12 kPa | 253.77
320 K, 677.09 kPa | 251.6
320 K, 756.59 kPa | 249.42
320 K, 834.83 kPa | 247.22
320 K, 905.02 kPa | 245.21
320 K, 976.94 kPa | 243.09
330 K, 151.93 kPa | 268.88
330 K, 227.66 kPa | 267.22
330 K, 302.35 kPa | 265.55
330 K, 380.89 kPa | 263.77
330 K, 455.62 kPa | 262.04
330 K, 550.82 kPa | 259.81
330 K, 642.65 kPa | 257.6
330 K, 732.74 kPa | 255.39
330 K, 821.61 kPa | 253.16
330 K, 912.04 kPa | 250.84
330 K, 1001.4 kPa | 248.5

O=C=O [carbon dioxide]
Details | speed of sound [m/s]
260 K, 317.37 kPa | 249.8
260 K, 379.95 kPa | 249.06
260 K, 434.17 kPa | 248.41
260 K, 501.31 kPa | 247.6
260 K, 562.69 kPa | 246.84
260 K, 626.77 kPa | 246.05
260 K, 701.21 kPa | 245.12
260 K, 760.19 kPa | 244.37
260 K, 822.03 kPa | 243.58
260 K, 884.92 kPa | 242.76
270 K, 305.05 kPa | 254.61
270 K, 362.27 kPa | 254.01
270 K, 460.73 kPa | 252.96
270 K, 556.68 kPa | 251.92
270 K, 644.89 kPa | 250.96
270 K, 732.1 kPa | 250
270 K, 819.89 kPa | 249.01
270 K, 906.73 kPa | 248.03
270 K, 977.38 kPa | 247.22
280 K, 280.31 kPa | 259.38
280 K, 362.38 kPa | 258.61
280 K, 453.25 kPa | 257.75
280 K, 537.04 kPa | 256.95
280 K, 621.46 kPa | 256.13
280 K, 692.2 kPa | 255.44
280 K, 798.98 kPa | 254.39
280 K, 884.2 kPa | 253.55
280 K, 981.82 kPa | 252.56
290 K, 228.71 kPa | 264.19
290 K, 282.86 kPa | 263.73
290 K, 355.64 kPa | 263.12
290 K, 421.86 kPa | 262.56
290 K, 490.56 kPa | 261.98
290 K, 571.6 kPa | 261.28
290 K, 655.16 kPa | 260.56
290 K, 733.65 kPa | 259.88
290 K, 819.49 kPa | 259.12
300 K, 280.85 kPa | 268.06
300 K, 340.26 kPa | 267.62
300 K, 415.37 kPa | 267.05
300 K, 500.85 kPa | 266.39
300 K, 583.49 kPa | 265.76
300 K, 663.9 kPa | 265.13
300 K, 755.49 kPa | 264.42
300 K, 847.25 kPa | 263.7
300 K, 927.15 kPa | 263.07
300 K, 1017.3 kPa | 262.36
304.09 K, 434.91 kPa | 268.66
304.09 K, 544.65 kPa | 267.86
304.09 K, 772.25 kPa | 266.17
304.09 K, 868.88 kPa | 265.45
304.09 K, 968.58 kPa | 264.69
312.75 K, 394.2 kPa | 272.63
312.75 K, 441.68 kPa | 272.31
312.75 K, 534.77 kPa | 271.69
312.75 K, 636.23 kPa | 271
312.75 K, 729.55 kPa | 270.37
312.75 K, 858.54 kPa | 269.49
312.75 K, 959.38 kPa | 268.8
322.75 K, 314.03 kPa | 277.28
322.75 K, 412.26 kPa | 276.69
322.75 K, 522.36 kPa | 276.02
322.75 K, 624.83 kPa | 275.4
322.75 K, 735.59 kPa | 274.72
322.75 K, 832.63 kPa | 274.13
322.75 K, 929.78 kPa | 273.53
332.75 K, 316.28 kPa | 281.3
332.75 K, 415.5 kPa | 280.76
332.75 K, 520.66 kPa | 280.19
332.75 K, 544.84 kPa | 280.05
332.75 K, 664.72 kPa | 279.39
332.75 K, 755.5 kPa | 278.89
332.75 K, 857.33 kPa | 278.33
332.75 K, 958.15 kPa | 277.78
